The source of these data is patent US10800741B2 (ANCUREALL PHARMACEUTICAL (SHANGHAI) CO., LTD., priority 2017, dated 2020).

Holding throughout (assay): KINOMEscan in vitro binding to 468 labeled protein kinases
Test [1] addresses T1, protein kinases (Homo sapiens, UniProt P07949, V804L).
T1 construct: purchased Discovery X company (USA), KINOMEscan screening platform
The settings on record: RET(V804L), read-out: Test compound/solvent control (%). On the procedure: (§1) Test Example 6 Determination of Binding Affinity of the Present Compounds on Protein Kinases In Vitro
(§2) KINOMEscan screening platform of Discovery X company (USA) was used to identify the binding targets of the present compounds to protein kinases. Compound 66 of the present invention was dissolved in DMSO (Sigma Aldrich) at concentrations of 1000 nM, 10 nM and 1 nM, and then was subjected to in vitro binding reaction with 468 labeled protein kinases. Two samples were taken in parallel for each assay sample.
(§3) The lower the percentage of the test compound to the solvent control, the stronger the binding affinity of the test compound to the protein kinase in vitro.

For test [2], the target named is T2, protein kinases (Homo sapiens, UniProt P00519).
T2 construct: purchased Discovery X company (USA), KINOMEscan screening platform
The settings on record: read-out: Test compound/solvent control (%); for remaining binding at 0.001 µM: 1 nM; for remaining binding at 0.01 µM: 10 nM; for remaining binding at 1 µM: 1000 nM. On the procedure: as §1, §2, §3

In test [3] the target is T3, protein kinases (Homo sapiens, UniProt P36888).
T3 construct: purchased Discovery X company (USA), KINOMEscan screening platform
T3 sequence (P36888 27-993): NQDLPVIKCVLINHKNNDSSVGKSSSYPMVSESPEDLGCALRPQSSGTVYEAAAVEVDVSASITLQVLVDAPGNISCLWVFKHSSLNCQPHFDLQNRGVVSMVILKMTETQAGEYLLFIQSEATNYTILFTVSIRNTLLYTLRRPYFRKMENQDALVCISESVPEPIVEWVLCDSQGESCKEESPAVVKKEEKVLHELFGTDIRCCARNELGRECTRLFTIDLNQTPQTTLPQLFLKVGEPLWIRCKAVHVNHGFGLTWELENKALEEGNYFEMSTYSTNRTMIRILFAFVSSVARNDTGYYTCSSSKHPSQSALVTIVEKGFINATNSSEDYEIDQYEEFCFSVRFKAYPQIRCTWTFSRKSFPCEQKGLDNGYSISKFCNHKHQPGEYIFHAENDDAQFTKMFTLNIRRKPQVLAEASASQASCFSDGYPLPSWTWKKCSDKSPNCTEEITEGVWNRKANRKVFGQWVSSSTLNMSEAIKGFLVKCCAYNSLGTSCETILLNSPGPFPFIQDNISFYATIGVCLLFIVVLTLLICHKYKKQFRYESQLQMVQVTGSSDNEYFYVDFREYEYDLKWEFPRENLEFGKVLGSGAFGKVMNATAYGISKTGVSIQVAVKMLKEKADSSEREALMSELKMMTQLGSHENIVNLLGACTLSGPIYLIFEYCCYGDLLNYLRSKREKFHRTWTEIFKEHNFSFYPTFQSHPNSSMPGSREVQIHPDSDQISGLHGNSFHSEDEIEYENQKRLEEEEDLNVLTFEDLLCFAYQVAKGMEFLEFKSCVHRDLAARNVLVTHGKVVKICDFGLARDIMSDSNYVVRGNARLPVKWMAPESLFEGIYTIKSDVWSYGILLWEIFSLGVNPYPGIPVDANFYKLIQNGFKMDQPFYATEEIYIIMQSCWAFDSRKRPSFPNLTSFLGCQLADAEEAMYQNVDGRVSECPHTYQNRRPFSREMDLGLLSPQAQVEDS
The settings on record: FLT3, read-out: Test compound/solvent control (%). The protocol: as §1, §2, §3

The target in test [4] is T4, protein kinases (Homo sapiens, UniProt P16234).
T4 construct: purchased Discovery X company (USA), KINOMEscan screening platform
The settings on record: PDGFRA, read-out: Test compound/solvent control (%). The protocol: as §1, §2, §3

Test [5] has as its target T5, protein kinases (Homo sapiens, UniProt P22607, G697C).
T5 construct: purchased Discovery X company (USA), KINOMEscan screening platform
The settings on record: FGFR3(G697C), read-out: Test compound/solvent control (%). On the procedure: as §1, §2, §3

Test [6] deals with T6, protein kinases (Homo sapiens, UniProt P10721, A829P).
T6 construct: purchased Discovery X company (USA), KINOMEscan screening platform
The settings on record: KIT(A829P), read-out: Test compound/solvent control (%). The protocol: as §1, §2, §3

Test [7] addresses T7, protein kinases (Homo sapiens, UniProt P36888, R834Q).
T7 construct: purchased Discovery X company (USA), KINOMEscan screening platform
T7 sequence (P36888 27-993 R834Q): T3 sequence (P36888 27-993) with R808Q
The settings on record: FLT3(R834Q), read-out: Test compound/solvent control (%). The protocol:
as §1, §2, §3

SMILES strings stand for the structures. Changes are numbered by the printed parent chain. Read-outs that look alike come from different tables or passages of the source.

T4 sequence (P16234 24-1089): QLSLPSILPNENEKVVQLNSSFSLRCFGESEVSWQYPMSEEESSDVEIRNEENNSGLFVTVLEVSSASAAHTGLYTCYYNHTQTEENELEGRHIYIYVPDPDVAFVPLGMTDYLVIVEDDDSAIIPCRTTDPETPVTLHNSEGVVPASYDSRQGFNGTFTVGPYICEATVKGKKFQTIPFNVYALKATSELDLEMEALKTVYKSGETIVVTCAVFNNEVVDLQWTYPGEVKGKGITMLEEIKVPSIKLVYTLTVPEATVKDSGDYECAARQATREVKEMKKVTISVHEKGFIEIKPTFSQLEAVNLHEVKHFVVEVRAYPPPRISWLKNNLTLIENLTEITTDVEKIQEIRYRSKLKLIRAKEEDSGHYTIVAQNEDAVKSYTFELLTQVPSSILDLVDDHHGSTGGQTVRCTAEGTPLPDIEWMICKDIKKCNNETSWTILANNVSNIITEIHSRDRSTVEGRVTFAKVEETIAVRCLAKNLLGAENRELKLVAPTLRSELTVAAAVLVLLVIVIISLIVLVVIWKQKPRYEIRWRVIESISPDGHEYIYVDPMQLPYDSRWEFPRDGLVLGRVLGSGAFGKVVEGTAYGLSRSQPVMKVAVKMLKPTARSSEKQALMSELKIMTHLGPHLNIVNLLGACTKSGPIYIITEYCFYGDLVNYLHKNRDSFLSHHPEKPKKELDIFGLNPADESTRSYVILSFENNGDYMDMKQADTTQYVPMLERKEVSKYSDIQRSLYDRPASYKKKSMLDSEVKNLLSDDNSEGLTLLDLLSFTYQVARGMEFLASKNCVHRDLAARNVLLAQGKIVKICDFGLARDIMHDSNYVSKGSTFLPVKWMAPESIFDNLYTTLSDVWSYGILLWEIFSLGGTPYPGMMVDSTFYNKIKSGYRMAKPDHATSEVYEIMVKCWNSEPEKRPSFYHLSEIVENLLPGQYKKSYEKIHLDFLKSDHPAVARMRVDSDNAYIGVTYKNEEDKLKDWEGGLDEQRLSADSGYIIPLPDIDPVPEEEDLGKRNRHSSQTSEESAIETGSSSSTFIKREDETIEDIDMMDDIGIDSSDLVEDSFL
T1 sequence (P07949 29-1114 V804L): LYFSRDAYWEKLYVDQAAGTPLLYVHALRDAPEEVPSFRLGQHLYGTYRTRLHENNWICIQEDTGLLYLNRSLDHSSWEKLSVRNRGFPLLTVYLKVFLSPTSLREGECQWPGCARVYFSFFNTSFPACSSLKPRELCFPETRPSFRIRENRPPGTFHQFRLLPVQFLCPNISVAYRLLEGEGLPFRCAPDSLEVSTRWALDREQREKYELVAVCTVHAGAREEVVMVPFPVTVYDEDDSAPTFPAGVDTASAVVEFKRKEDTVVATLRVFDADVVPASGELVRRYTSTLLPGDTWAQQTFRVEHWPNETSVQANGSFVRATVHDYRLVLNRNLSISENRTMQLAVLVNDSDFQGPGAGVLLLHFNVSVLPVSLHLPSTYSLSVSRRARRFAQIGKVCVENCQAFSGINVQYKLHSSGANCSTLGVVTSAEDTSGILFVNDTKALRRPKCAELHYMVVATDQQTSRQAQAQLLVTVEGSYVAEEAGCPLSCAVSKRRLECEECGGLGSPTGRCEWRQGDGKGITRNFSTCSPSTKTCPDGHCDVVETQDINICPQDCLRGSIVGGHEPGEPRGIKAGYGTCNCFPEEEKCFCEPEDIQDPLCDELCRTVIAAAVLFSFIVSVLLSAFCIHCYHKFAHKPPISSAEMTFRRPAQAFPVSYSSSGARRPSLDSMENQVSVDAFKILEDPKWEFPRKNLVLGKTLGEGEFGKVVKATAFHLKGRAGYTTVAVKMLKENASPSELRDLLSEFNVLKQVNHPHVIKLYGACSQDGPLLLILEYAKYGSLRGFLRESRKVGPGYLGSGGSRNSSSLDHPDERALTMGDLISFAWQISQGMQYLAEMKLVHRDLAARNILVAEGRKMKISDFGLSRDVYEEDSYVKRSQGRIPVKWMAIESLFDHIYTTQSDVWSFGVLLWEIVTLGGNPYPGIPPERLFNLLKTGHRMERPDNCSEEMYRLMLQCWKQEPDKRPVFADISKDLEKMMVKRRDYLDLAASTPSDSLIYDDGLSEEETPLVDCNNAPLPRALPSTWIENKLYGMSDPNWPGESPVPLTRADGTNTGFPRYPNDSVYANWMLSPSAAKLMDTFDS
T5 sequence (P22607 23-806 G697C): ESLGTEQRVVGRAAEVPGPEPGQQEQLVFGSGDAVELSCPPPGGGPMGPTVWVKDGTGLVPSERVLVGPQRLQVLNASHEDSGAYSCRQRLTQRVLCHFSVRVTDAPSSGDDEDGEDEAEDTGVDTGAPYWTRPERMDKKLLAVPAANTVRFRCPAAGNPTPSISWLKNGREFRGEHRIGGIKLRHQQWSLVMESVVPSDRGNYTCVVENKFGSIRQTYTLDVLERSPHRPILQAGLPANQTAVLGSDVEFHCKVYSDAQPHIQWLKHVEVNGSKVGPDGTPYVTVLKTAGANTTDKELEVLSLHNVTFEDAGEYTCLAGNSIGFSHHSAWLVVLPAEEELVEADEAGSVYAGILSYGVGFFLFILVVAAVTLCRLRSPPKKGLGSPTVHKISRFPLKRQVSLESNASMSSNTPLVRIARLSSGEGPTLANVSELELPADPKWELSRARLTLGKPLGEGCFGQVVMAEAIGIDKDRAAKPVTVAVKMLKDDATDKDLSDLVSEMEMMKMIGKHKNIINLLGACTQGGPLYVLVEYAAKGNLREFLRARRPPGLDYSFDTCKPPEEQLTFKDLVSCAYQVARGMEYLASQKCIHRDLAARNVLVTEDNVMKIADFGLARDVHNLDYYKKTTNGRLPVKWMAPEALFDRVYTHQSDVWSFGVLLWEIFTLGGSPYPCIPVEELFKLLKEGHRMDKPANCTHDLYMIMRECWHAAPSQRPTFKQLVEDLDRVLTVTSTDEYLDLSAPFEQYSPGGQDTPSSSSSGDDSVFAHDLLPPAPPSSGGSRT
T2 sequence (P00519 whole entry): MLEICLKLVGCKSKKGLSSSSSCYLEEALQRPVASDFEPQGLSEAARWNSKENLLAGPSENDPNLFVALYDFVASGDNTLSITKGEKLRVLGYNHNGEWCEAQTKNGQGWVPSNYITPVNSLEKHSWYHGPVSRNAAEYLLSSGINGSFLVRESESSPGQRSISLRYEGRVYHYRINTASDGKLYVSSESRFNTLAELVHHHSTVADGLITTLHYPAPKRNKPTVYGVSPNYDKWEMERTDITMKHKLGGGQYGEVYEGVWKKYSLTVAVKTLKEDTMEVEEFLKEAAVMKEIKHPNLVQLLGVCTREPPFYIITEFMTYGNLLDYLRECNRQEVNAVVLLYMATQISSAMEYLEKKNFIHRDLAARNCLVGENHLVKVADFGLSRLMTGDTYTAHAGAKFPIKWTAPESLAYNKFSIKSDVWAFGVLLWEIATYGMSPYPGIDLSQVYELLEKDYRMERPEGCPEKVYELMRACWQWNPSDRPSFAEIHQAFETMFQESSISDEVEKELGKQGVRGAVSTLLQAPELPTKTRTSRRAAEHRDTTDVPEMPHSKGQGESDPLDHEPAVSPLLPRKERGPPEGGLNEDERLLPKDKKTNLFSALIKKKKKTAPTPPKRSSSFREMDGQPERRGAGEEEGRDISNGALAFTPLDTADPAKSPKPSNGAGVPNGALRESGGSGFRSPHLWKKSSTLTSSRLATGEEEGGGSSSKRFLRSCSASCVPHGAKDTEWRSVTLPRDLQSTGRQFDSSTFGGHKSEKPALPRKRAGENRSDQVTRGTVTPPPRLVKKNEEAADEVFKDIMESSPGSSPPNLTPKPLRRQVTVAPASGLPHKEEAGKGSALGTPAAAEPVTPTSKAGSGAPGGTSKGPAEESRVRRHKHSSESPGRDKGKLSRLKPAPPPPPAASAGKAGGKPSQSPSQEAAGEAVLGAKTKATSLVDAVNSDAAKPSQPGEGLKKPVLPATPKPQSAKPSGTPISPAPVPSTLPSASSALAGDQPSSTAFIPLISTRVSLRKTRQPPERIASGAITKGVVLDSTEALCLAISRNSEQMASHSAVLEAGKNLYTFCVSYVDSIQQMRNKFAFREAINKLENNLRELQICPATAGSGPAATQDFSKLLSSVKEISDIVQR
T6 sequence (P10721 26-976 A829P): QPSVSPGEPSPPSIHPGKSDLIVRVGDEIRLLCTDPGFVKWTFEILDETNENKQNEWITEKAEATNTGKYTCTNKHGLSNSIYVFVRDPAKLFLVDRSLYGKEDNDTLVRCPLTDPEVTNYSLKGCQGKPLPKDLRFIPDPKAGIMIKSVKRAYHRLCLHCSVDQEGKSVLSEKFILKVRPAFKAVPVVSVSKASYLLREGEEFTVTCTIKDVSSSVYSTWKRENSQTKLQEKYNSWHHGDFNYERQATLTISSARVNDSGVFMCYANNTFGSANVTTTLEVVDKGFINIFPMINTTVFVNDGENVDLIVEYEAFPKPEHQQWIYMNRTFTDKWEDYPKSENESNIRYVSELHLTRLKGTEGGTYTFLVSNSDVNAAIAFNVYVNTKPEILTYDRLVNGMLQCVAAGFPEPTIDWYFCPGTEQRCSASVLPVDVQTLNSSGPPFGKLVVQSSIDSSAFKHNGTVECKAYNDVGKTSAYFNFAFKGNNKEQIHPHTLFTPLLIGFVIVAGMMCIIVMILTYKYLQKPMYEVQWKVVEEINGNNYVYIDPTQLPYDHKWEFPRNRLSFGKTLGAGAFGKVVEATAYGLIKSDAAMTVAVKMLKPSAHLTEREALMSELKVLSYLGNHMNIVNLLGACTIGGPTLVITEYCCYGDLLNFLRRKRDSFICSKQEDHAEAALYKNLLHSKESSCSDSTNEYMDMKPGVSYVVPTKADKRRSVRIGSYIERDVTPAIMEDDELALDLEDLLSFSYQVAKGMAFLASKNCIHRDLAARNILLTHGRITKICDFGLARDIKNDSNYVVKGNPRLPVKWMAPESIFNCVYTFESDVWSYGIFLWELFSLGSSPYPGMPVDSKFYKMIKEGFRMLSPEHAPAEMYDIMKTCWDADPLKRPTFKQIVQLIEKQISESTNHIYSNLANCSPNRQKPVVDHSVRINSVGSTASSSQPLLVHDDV

For the molecule `COCCOc1cc2nccc(Oc3ccc(NC(=O)Nc4cc(C(C)(C)C)n[nH]4)c(Cl)c3)c2cc1NC(C)=O` [Compound 66, N-[4-{4-[3-(5-tert-butyl-2H-pyrazol-3-yl)-ureido]-3-chloro-phenoxy}-7-(2-methoxy-ethoxy)-quinolin-6-yl]-acetamide], the remaining binding at 0.001 µM turned out to be 88% at protein kinases [1] (1 nM); 49% on protein kinases [2] (ABL1-phosphorylated); 41% at protein kinases [2] (ABL1-unphosphorylated); 92% on protein kinases [3] (1 nM); 88% on protein kinases [4] (1 nM); 81% on protein kinases [5] (1 nM). In addition, the remaining binding at 0.001 µM came to 84% at protein kinases [6] (1 nM) and 83% on protein kinases [7] (1 nM). Moreover, the remaining binding at 0.01 µM on protein kinases [1] (10 nM) came to 17%; on protein kinases [2] (ABL1-phosphorylated), 9.9%; at protein kinases [2] (ABL1-unphosphorylated), 8.3%; on protein kinases [3] (10 nM), 20%; on protein kinases [4] (10 nM) it was 34%; on protein kinases [5] (10 nM), 54%. Moreover, the remaining binding at 0.01 µM was 22% at protein kinases [6] (10 nM) and 45% at protein kinases [7] (10 nM). The remaining binding at 1 µM on protein kinases [1] (1000 nM) is 0%; at protein kinases [2] (ABL1-phosphorylated) it was 0.1%; on protein kinases [2] (ABL1-unphosphorylated) it was 0%; at protein kinases [3] (1000 nM), 1.9%; at protein kinases [4] (1000 nM) it was 0.15%; on protein kinases [5] (1000 nM) it was 0.05%. The remaining binding at 1 µM at protein kinases [6] (1000 nM) came out at 0%; on protein kinases [7] (1000 nM), 0.6%.
